Measured values published in US5154929A, “Percutaneous absorption type preparation and process for preparing the same” (Nitto Denko Corporation, priority 1988, dated 1992).

Experiment: Saturated solubility of the drug in the pressure-sensitive adhesive

Compound: CC(C)NCC(O)COc1cccc2[nH]ccc12 (stereo not drawn) [Pindolol]
- Saturated Solubility (in adhesive of Comparative Example 5 (2-ethylhexylacrylate 85, N-vinyl-2-pyrrolidone 15)): 7%
- Saturated Solubility (in adhesive of Comparative Example 6 (2-ethylhexylacrylate 75, N-vinyl-2-pyrrolidone 25)): 6%
- Saturated Solubility (in adhesive of Example 4 (2-ethylhexylacrylate 85, N-vinyl-2-pyrrolidone 15)): 7%

Compound: CN1C(=O)CN=C(c2ccccc2F)c2cc([N+](=O)[O-])ccc21 [Flunitrazepam]
- Saturated Solubility (in adhesive of Comparative Example 3 (nonylacrylate 75, ethoxyethylacrylate 15, vinyl acetate 10)): 3.5%
- Saturated Solubility (in adhesive of Comparative Example 4 (nonylacrylate 60, ethoxyethylacrylate 20, vinyl acetate 20)): 4%
- Saturated Solubility (in adhesive of Example 3 (nonylacrylate 75, ethoxyethylacrylate 15, vinyl acetate 10)): 3.5%
